From PMC6289105 (Organic & Biomolecular Chemistry, 2018)

System: Helix pomatia agglutinin (HPA)
Assay: Bio-layer interferometry
Format: binding
Conditions: SA and SSA sensors; monovalent reference and negative control

Question: How did the BLI binding signal turn out when CC(=O)N[C@H]1C(O)O[C@H](CO)[C@H](O)[C@@H]1O (stereo partly shown) [GalNAc] was run?
Answer: no detectable signal
